# Measurements published in patent publication US11905249B2, “Covalent inhibitors of equine encephalitis virus” (priority 2021, dated 2024).
# Where two headings read alike, the source gives them in different places.
# Columns and labels:
# VEEV (IC-SH3) [1] = experiment: microbe, parasite or virus in culture; format: cell-based; conditions: Venezuelan equine encephalitis virus, HeLa, read-out: EC50 (HeLa)
# VEEV (IC-SH3) [2] = experiment: microbe, parasite or virus in culture; format: cell-based; conditions: Venezuelan equine encephalitis virus, Vero, read-out: EC50 (Vero)
# VEEV TC83 [3] = experiment: microbe, parasite or virus in culture; format: cell-based, Venezuelan equine encephalitis virus
# VEEV TC83 [4] = experiment: microbe, parasite or virus in culture; format: cell-based, Venezuelan equine encephalitis virus; remark: listed apart in the source
# VEEV nsP2 protease = VEEV nsP2 protease (Venezuelan equine encephalitis virus, UniProt P27282); experiment: biochemical; conditions: read-out: estimated percentage inhibition of VEEV nsP2
# Sequence of VEEV nsP2 protease (P27282 1003-1322 limits assumed): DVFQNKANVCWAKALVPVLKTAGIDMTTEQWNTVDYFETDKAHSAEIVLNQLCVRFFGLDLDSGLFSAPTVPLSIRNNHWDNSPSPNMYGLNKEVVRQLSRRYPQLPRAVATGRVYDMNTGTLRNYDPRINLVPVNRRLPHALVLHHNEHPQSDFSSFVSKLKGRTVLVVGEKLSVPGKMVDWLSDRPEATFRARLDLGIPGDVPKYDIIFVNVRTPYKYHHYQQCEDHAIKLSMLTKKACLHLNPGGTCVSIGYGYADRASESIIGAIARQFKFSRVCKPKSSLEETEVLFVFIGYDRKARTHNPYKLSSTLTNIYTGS
# [5] = Venezuelan equine encephalitis virus, N2a, in Mus musculus, read-out: Mouse Neuro-2a (TC83) EC50 (μM)
# [6] = Venezuelan equine encephalitis virus, read-out: Human BE(2)-M17 (TC83) EC50 (μM)
SMILES,EC50 (VEEV TC83 [3]; [5]) [µM],EC50 (VEEV TC83 [4]; [6]) [µM],Human BE(2)-M17 (TC83) CC50 (BE(2)-M17 cells; human) [µM],Mouse Neuro-2a (TC83) CC50 (Neuro-2a cells; mouse) [µM],other results
COC(=O)/C=C/CNC(=O)c1cccc2c1NC(C)(C)C=C2C [Compound 1],,,,,EC50 (VEEV (IC-SH3) [1]): 6.48 µM; EC50 (VEEV (IC-SH3) [2]): 0.55 µM
COC(=O)/C=C/CNC(=O)c1c[nH]c2ccc(C)cc12 [Compound 21],> 25,> 25,>25.00,>25.00,
C[C@@H]1CC(C)(C)Nc2c(C(=O)N[C@@H](C)/C=C/S(C)(=O)=O)cccc21 [Compound 13],,,,,inhibition at 0.9 µM (VEEV nsP2 protease): ~71%
COC(=O)/C=C/[C@H](Cc1ccccc1)NC(=O)c1cc(C)cc2c1NC(C)(C)C=C2C [Compound 30],> 50,> 50,>50.00,>50.00,
C[C@@H]1CC(C)(C)Nc2c(C(=O)N[C@H](/C=C/S(=O)(=O)c3ccccc3)Cc3ccccc3)cccc21 [Compound 42],> 25,> 25,>25.00,>25.00,
COC(=O)/C=C/CNC(=O)c1ccccc1Nc1ccccc1 [Compound 19],> 25,> 25,>25.00,>25.00,
CC1=CC(C)(C)Nc2c(C(=O)N[C@@H](C)/C=C/S(C)(=O)=O)cccc21 [Compound 12],,,,,inhibition at 0.9 µM (VEEV nsP2 protease): ~59%
COc1ccc2[nH]cc(C(=O)N[C@H](/C=C/S(=O)(=O)c3ccccc3)Cc3ccccc3)c2c1 [Compound 40],> 25,23.9 ± 5.33,>25.00,>25.00,
COC(=O)/C=C/CNC(=O)c1cccc2nccnc12 [Compound 22],> 25,> 25,>25.00,>25.00,
CS(=O)(=O)/C=C/CNC(=O)c1ccccc1Nc1ccccc1 [Compound 32],> 25,> 25,27.14,>25.00,
CS(=O)(=O)/C=C/CNC(=O)c1ccccc1Nc1cccc(Cl)c1Cl [Compound 33],> 25,> 25,5.86,15.48,
COC(=O)/C=C/C(C)(C)NC(=O)c1cccc2c1NC(C)(C)C=C2C [Compound 26],> 25,> 25,>25.00,>25.00,
O=C(N[C@H](/C=C/S(=O)(=O)c1ccccc1)Cc1ccccc1)c1cccc2c1NCCC2 [Compound 43],> 25,> 25,>25.00,>25.00,
COC(=O)/C=C/CNC(=O)c1ccccc1Nc1c(Cl)ccc(C)c1Cl [Compound 23],> 25,> 25,>25.00,23.53,
CS(=O)(=O)/C=C/[C@H](Cc1ccccc1)NC(=O)c1cccc2cccnc12 [Compound 36],> 25,> 25,>25.00,>25.00,
COC(=O)/C=C/[C@H](Cc1ccccc1)NC(=O)c1cccc2c1NC(C)(C)C=C2C [Compound 29],> 50,> 50,>50.00,>50.00,

SMILES,EC50 (VEEV TC83 [3]; [5]) [µM],EC50 (VEEV TC83 [4]; [6]) [µM],Human BE(2)-M17 (TC83) CC50 (BE(2)-M17 cells; human) [µM],Mouse Neuro-2a (TC83) CC50 (Neuro-2a cells; mouse) [µM],other results
C[C@@H]1CC(C)(C)Nc2c(C(=O)NC(C)(C)/C=C/S(C)(=O)=O)cccc21 [Compound 39],> 25,> 25,>25.00,>25.00,
COC(=O)/C=C/CNC(=O)c1cccc2ccc(C)nc12 [Compound 18],> 25,> 25,>25.00,>25.00,
COC(=O)/C=C/[C@H](Cc1ccccc1)NC(=O)c1c[nH]c2ccc(Cl)cc12 [Compound 28],> 50,> 50,>50.00,>50.00,
COC(=O)/C=C/CNC(=O)c1ccccc1Nc1cccc(Cl)c1Cl [Compound 20],> 25,> 25,>25.00,1.52,
Cc1ccc2cccc(C(=O)NC/C=C/S(C)(=O)=O)c2n1 [Compound 31],> 25,> 25,>25.00,>25.00,
CC1=CC(C)(C)Nc2c(C(=O)NC(C)(C)/C=C/S(C)(=O)=O)cccc21 [Compound 38],> 25,> 25,>25.00,>25.00,
Cc1ccc(Cl)c(Nc2ccccc2C(=O)NC/C=C/S(C)(=O)=O)c1Cl [Compound 35],> 25,18.2 ± 0.93,14.50,>25.00,
COC(=O)/C=C/CNC(=O)c1cccc2cccnc12 [Compound 17],> 25,> 25,>25.00,>25.00,
CS(=O)(=O)/C=C/CNC(=O)c1cccc2nccnc12 [Compound 34],> 25,> 25,>25.00,>25.00,
CC1=CC(C)(C)Nc2c(C(=O)N[C@H](/C=C/S(=O)(=O)c3ccccc3)Cc3ccccc3)cccc21 [Compound 41],> 25,> 25,>25.00,>25.00,
COC(=O)/C=C/C(C)(C)NC(=O)c1cccc2c1NC(C)(C)C[C@H]2C [Compound 27],> 25,> 25,>25.00,>25.00,
CC1=CC(C)(C)Nc2c(C(=O)N[C@H](/C=C/S(C)(=O)=O)Cc3ccccc3)cc(C)cc21 [Compound 37],> 50,31.7 ± 16.7,>50.00,>50.00,
C[C@@H]1CC(C)(C)Nc2c(C(=O)NC/C=C/S(C)(=O)=O)cccc21 [Compound 11],,,,,inhibition at 0.9 µM (VEEV nsP2 protease): ~39%
"CN1CCN(C)C(=Nc2ccc([N+](=O)[O-])cc2C(=O)Nc2ccccc2)C1 [ML336, reference compound]",,,,,EC50 (VEEV TC83 [3]; read-out: Mouse Neuro-2a (TC83) EC50): 0.02 ± 0.01 µM; EC50 (VEEV TC83 [4]; read-out: Human BE(2)-M17 (TC83) EC50): 0.01 µM; Human BE(2)-M17 (TC83) CC50 (BE(2)-M17 cells): >2.50 µM; Mouse Neuro-2a (TC83) CC50 (Neuro-2a cells): >2.5 µM
COC(=O)/C=C/[C@H](C)NC(=O)c1cccc2c1NC(C)(C)C=C2C [Compound 24],> 25,> 25,>25.00,>25.00,
COC(=O)/C=C/[C@H](C)NC(=O)c1cccc2c1NC(C)(C)C[C@H]2C [Compound 25],> 25,> 25,>25.00,>25.00,
